Laboratory results taken from patent publication US8501446B2 (Vertex Pharmaceuticals Incorporated, priority 2004, dated 2013).
pKi: −log10 of the molar value.

How the values were obtained:
Format in all cases: biochemical
JAK2 = JAK2 (Homo sapiens, UniProt O60674); assay: JAK2 inhibition assay (radioactive enzyme assay, as for JAK3); details: average Ki if more than one value determined
Method in brief: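 Both kinases: poly(Glu)4Tyr substrate in 100 mM HEPES pH 7.4, 10 mM MgCl2, 1 mM DTT. Run 20 min at 25° C, TCA stop, filter-bound ³³P counted, Ki(app) fitted after background subtraction. JAK3: final [γ-³³P]ATP 5 μM, enzyme added as 2 nM solution. JAK2: final poly(Glu)4Tyr 15 μM, final ATP 12 μM.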

[1] = molecular target: T1, full length Aurora-A (AA 1-403) (Homo sapiens, UniProt O14965); assay: Aurora-A inhibition assay, standard coupled enzyme system; details: average Ki if more than one value determined
T1 construct: full length Aurora-A (AA 1-403)
T1 sequence (O14965 1-403): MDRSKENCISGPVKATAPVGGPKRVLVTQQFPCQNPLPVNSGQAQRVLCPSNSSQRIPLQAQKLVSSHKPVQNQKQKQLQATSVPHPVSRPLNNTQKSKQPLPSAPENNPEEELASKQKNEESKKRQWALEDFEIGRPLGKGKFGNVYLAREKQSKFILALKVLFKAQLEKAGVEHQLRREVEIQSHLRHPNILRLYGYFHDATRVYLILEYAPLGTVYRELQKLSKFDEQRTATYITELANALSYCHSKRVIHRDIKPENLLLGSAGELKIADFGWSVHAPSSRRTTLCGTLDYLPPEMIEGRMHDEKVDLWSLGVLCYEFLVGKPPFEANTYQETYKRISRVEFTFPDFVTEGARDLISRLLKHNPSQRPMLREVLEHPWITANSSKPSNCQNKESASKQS

JAK3 = molecular target: T2, JAK3 (Homo sapiens, UniProt P52333); assay: JAK3 inhibition assay (standard radioactive enzyme assay); details: average Ki if more than one value determined
T2 sequence (P52333 1-1124): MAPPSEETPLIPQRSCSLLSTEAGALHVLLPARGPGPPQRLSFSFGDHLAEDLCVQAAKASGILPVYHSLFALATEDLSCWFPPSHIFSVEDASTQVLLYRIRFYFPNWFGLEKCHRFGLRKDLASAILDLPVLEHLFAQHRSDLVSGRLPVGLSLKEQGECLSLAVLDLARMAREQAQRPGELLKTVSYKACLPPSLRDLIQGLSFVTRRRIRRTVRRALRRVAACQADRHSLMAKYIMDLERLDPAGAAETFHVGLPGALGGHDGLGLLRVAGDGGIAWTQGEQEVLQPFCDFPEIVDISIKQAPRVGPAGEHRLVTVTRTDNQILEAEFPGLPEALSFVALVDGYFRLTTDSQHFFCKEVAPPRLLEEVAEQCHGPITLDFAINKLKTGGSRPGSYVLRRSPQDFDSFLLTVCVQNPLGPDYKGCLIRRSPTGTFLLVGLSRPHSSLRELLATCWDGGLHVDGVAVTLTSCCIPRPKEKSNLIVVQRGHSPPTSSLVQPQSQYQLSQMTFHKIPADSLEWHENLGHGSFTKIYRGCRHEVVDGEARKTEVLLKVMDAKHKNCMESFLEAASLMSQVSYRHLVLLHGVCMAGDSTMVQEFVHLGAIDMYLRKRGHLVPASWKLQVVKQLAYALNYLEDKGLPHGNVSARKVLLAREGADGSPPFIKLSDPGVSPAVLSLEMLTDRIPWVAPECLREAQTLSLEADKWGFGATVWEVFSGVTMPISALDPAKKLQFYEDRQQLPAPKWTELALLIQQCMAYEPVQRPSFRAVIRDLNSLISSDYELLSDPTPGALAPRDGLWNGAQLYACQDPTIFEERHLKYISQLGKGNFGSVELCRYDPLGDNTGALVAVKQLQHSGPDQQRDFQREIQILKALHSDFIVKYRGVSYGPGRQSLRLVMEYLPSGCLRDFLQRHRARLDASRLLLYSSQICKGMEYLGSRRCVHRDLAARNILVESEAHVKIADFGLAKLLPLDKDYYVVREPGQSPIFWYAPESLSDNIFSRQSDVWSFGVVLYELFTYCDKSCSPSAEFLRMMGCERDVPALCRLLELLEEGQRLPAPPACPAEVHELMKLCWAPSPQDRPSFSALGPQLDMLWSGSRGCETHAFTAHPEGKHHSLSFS

ROCK I (AA 6-553) = molecular target: T3, ROCK I (AA 6-553) (Homo sapiens, UniProt Q13464); assay: ROCK inhibition assay, standard coupled enzyme system ("Enzyme"); details: enzyme-linked assay
T3 construct: ROCK I (AA 6-553)
T3 sequence (Q13464 6-553, species assumed): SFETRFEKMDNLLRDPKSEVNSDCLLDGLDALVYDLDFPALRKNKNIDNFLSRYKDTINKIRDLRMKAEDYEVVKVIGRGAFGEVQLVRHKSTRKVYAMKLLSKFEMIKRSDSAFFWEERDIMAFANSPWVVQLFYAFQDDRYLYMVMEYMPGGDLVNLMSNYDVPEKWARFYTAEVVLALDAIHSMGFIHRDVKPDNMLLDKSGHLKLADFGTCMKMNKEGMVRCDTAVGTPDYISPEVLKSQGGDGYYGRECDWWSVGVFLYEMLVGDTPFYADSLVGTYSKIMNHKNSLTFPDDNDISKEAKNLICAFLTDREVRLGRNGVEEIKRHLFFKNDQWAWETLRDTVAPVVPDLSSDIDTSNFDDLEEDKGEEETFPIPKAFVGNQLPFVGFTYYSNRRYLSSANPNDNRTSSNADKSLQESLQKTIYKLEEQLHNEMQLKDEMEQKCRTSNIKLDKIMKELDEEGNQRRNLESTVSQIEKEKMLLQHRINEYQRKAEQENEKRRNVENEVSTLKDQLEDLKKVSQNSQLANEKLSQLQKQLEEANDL
Method in brief: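 ROCK I (AA 6-553) at 45 nM and 30 °C with 45 μM ATP and 200 μM peptide, in 100 mM HEPES pH 7.5, 10 mM MgCl2, 25 mM NaCl, 2 mM DTT, 1.5% DMSO. ADP output read by a PK/LDH coupled system: 2.5 mM PEP, 350 μM NADH, 30 μg/ml PK, 10 μg/ml LDH.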

Chain of JAK2 (O60674 whole entry, species assumed): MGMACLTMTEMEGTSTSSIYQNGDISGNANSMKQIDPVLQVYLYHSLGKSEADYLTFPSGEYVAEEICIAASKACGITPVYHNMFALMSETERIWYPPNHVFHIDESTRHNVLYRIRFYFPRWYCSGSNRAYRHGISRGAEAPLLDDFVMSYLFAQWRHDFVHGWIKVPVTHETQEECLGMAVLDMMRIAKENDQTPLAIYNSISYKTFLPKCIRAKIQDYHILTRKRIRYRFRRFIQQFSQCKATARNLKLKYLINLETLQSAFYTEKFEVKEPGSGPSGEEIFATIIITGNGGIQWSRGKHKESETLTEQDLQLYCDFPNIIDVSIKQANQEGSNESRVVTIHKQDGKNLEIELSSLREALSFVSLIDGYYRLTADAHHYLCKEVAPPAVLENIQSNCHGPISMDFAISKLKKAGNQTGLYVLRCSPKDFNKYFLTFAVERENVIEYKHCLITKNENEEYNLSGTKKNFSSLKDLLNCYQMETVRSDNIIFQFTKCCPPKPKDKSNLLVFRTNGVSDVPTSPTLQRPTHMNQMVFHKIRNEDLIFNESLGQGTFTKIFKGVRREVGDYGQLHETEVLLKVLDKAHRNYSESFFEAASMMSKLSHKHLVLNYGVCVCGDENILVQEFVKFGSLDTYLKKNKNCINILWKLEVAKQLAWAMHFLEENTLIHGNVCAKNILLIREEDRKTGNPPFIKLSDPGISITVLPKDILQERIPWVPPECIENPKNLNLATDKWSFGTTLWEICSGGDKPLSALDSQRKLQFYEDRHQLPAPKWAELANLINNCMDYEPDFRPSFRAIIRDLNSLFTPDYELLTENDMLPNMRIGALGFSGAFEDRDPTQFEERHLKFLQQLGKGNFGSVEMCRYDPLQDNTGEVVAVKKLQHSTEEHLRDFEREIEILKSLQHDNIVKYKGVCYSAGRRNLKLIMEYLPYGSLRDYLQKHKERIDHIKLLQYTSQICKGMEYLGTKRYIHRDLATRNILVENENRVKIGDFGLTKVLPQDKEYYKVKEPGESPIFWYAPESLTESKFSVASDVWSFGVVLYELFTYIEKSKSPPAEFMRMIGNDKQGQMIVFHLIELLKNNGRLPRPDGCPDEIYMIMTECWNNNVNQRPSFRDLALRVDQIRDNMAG

Compound	pKi (JAK2)	pKi [1]	pKi (JAK3)	pKi (ROCK I (AA 6-553))
CC(=O)N1[C@H](C)CN(c2nc(-c3c[nH]c4ncc(Cl)cc34)ccc2-c2nnn[nH]2)C[C@@H]1C [Compound 120]	> 6.30	> 6.30	> 6.30	5.30 to 6.30
CC(=O)N1[C@H](C)CN(c2cccc(-c3c[nH]c4ncc(NC(=O)CCN5CCOCC5)cc34)n2)C[C@@H]1C [Compound 121]	> 6.30	5.30 to 6.30	> 6.30	5.30 to 6.30
CN(C)c1cccc(-c2c[nH]c3ncc(Cl)cc23)n1 [Compound 122]	> 6.30	5.30 to 6.30	> 6.30	5.30 to 6.30
CC(C)CN(C)c1cccc(-c2c[nH]c3ncc(Cl)cc23)n1 [Compound 123]	> 6.30	5.30 to 6.30	> 6.30	5.30 to 6.30
CC(=O)N1CCCN(c2cccc(-c3c[nH]c4ncc(C(=O)NCCN5CCOCC5)cc34)n2)CC1 [Compound 124]	> 6.30	5.30 to 6.30	> 6.30	5.30 to 6.30
CC(=O)N1CCCN(c2cccc(-c3c[nH]c4ncc(C(=O)NCCCN5CCN(C)CC5)cc34)n2)CC1 [Compound 125]	> 6.30	5.30 to 6.30	> 6.30	5.30 to 6.30
CC(=O)N1[C@H](C)CN(c2cccc(-c3c[nH]c4ncc(NC(=O)CCN5CCNCC5)cc34)n2)C[C@@H]1C [Compound 128]	> 6.30	5.30 to 6.30	> 6.30	5.30 to 6.30
CC(C)[C@@H](C)Nc1cccc(-c2c[nH]c3ncc(Cl)cc23)n1 [Compound 130]	> 6.30	> 6.30	> 6.30	5.30 to 6.30
C[C@@H](Nc1cccc(-c2c[nH]c3ncc(Cl)cc23)n1)c1ccc(F)cc1 [Compound 131]	> 6.30	> 6.30	> 6.30	5.30 to 6.30
O[C@H]1CCCC[C@@H]1Nc1cccc(-c2c[nH]c3ncc(Cl)cc23)n1 [Compound 132]	> 6.30	> 6.30	> 6.30	5.30 to 6.30
CC(C)CNc1cc(C#N)cc(-c2c[nH]c3ncc(Cl)cc23)n1 [Compound 150]	> 6.30	5.30 to 6.30	> 6.30	5.30 to 6.30
N#Cc1cc(-c2c[nH]c3ncc(Cl)cc23)nc(N2CCCNCC2)c1 [Compound 151]	> 6.30	> 6.30	> 6.30	> 6.30
CC(=O)N1[C@H](C)CN(c2cccc(-c3c[nH]c4ncc(NC(=O)CCCN5CCNCC5)cc34)n2)C[C@@H]1C [Compound 152]	> 6.30	5.30 to 6.30	> 6.30	5.30 to 6.30
CC(=O)N1[C@H](C)CN(c2cccc(-c3c[nH]c4ncc(NC(=O)CCCN5CCOCC5)cc34)n2)C[C@@H]1C [Compound 153]	> 6.30	5.30 to 6.30	> 6.30	5.30 to 6.30
CC(=O)N1[C@H](C)CN(c2cccc(-c3c[nH]c4ncc(NC(=O)c5cccc(F)c5)cc34)n2)C[C@@H]1C [Compound 169]	> 6.30	5.30 to 6.30	> 6.30	5.30 to 6.30

Other lines, results leading:

pKi (JAK2)	pKi [1]	pKi (JAK3)	pKi (ROCK I (AA 6-553))	Compound
> 6.30	5.30 to 6.30	> 6.30	5.30 to 6.30	CCOC(=O)CCC(=O)Nc1cnc2[nH]cc(-c3cccc(N4C[C@@H](C)N(C(C)=O)[C@@H](C)C4)n3)c2c1 [Compound 119]
> 6.30	5.30 to 6.30	> 6.30	5.30 to 6.30	C=C(C)C(=O)Nc1cnc2[nH]cc(-c3cccc(N4C[C@@H](C)N(C(C)=O)[C@@H](C)C4)n3)c2c1 [Compound 154]
> 6.30	5.30 to 6.30	> 6.30	5.30 to 6.30	CC(=O)N1[C@H](C)CN(c2cccc(-c3c[nH]c4ncc(NC(=O)C5=CCCCC5)cc34)n2)C[C@@H]1C [Compound 155]
> 6.30	5.30 to 6.30	> 6.30	> 6.30	CC(=O)N1[C@H](C)CN(c2cccc(-c3c[nH]c4ncc(NC(=O)c5ccccc5)cc34)n2)C[C@@H]1C [Compound 156]
> 6.30	5.30 to 6.30	> 6.30	5.30 to 6.30	CC(=O)N1[C@H](C)CN(c2cccc(-c3c[nH]c4ncc(NC(=O)C5=CCCC5)cc34)n2)C[C@@H]1C [Compound 157]
> 6.30	5.30 to 6.30	> 6.30	5.30 to 6.30	CC(=O)N1[C@H](C)CN(c2cccc(-c3c[nH]c4ncc(NC(=O)C5CCCCC5)cc34)n2)C[C@@H]1C [Compound 158]
> 6.30	5.30 to 6.30	> 6.30	5.30 to 6.30	CNc1cnc2[nH]cc(-c3cccc(N4C[C@@H](C)N(C(C)=O)[C@@H](C)C4)n3)c2c1 [Compound 159]
> 6.30	5.30 to 6.30	> 6.30	5.30 to 6.30	C/C=C(\C)C(=O)Nc1cnc2[nH]cc(-c3cccc(N4C[C@@H](C)N(C(C)=O)[C@@H](C)C4)n3)c2c1 [Compound 161]
> 6.30	5.30 to 6.30	> 6.30	5.30 to 6.30	CC(=O)N1[C@H](C)CN(c2cccc(-c3c[nH]c4ncc(NC(=O)c5cscn5)cc34)n2)C[C@@H]1C [Compound 162]
> 6.30	5.30 to 6.30	> 6.30	5.30 to 6.30	CC(=O)N1[C@H](C)CN(c2cccc(-c3c[nH]c4ncc(NC(=O)c5cccnc5)cc34)n2)C[C@@H]1C [Compound 163]
> 6.30	5.30 to 6.30	> 6.30	5.30 to 6.30	CC(=O)N1[C@H](C)CN(c2cccc(-c3c[nH]c4ncc(NC(=O)c5cnccn5)cc34)n2)C[C@@H]1C [Compound 164]
> 6.30	5.30 to 6.30	> 6.30	5.30 to 6.30	CC(=O)N1[C@H](C)CN(c2cccc(-c3c[nH]c4ncc(NC(=O)C5CC5)cc34)n2)C[C@@H]1C [Compound 165]
> 6.30	5.30 to 6.30	> 6.30	5.30 to 6.30	CC(=O)N1[C@H](C)CN(c2cccc(-c3c[nH]c4ncc(NC(=O)C5CCCC5)cc34)n2)C[C@@H]1C [Compound 166]
> 6.30	5.30 to 6.30	> 6.30	5.30 to 6.30	CC(=O)N1[C@H](C)CN(c2cccc(-c3c[nH]c4ncc(NC(=O)c5ccno5)cc34)n2)C[C@@H]1C [Compound 167]
> 6.30	5.30 to 6.30	> 6.30	5.30 to 6.30	CC(=O)N1[C@H](C)CN(c2cccc(-c3c[nH]c4ncc(NC(=O)c5cccc(C)c5)cc34)n2)C[C@@H]1C [Compound 168]
> 6.30	5.30 to 6.30	> 6.30	5.30 to 6.30	COCC(=O)Nc1cnc2[nH]cc(-c3cccc(N4C[C@@H](C)N(C(C)=O)[C@@H](C)C4)n3)c2c1 [Compound 170]
> 6.30	5.30 to 6.30	> 6.30	> 6.30	CC(=O)N1[C@H](C)CN(c2cccc(-c3c[nH]c4ncc(NC(=O)c5ccccc5F)cc34)n2)C[C@@H]1C [Compound 172]
